Experiments:
[1] = target: PIK3CG (human) (UniProt P48736); assay: Assessment of PIK3CG Kinase Activity
[2] = target: PIK3CA (human) (UniProt P42336); assay: Assessment of PIK3CA Kinase Activity
[3] = target: PIK3CD (Human) (UniProt O00329); assay: Assessment of PIK3CD Kinase Activity
Sequence of PIK3CD (Human) (O00329 whole entry, looked up): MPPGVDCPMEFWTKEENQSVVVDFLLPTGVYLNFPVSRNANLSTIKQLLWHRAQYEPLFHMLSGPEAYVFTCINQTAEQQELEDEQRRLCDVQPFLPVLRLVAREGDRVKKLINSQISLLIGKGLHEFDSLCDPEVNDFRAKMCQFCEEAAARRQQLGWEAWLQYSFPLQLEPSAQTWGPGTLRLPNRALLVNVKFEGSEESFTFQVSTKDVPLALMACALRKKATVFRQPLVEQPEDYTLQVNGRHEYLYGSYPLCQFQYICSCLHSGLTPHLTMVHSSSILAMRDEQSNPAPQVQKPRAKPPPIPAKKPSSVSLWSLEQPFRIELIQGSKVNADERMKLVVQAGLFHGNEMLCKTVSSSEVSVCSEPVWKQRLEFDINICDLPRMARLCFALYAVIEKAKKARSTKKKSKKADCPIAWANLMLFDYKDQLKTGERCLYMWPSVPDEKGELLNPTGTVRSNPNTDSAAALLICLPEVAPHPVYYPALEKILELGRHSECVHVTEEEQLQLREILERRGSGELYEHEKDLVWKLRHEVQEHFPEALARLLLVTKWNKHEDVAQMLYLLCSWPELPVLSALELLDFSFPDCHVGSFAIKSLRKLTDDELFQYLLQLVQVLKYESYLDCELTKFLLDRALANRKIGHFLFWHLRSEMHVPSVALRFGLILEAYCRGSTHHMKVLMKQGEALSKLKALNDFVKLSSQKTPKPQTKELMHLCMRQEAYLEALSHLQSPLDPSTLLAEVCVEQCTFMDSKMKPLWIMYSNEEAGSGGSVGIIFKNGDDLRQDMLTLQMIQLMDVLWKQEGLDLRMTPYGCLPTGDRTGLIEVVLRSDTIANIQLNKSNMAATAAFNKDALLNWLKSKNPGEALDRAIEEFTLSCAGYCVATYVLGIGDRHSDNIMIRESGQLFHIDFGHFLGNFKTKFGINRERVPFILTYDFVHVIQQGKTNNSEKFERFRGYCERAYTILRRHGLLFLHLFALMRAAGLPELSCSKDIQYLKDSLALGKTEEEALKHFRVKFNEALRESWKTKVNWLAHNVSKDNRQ

Sequence of PIK3CA (human) (P42336 whole entry, looked up): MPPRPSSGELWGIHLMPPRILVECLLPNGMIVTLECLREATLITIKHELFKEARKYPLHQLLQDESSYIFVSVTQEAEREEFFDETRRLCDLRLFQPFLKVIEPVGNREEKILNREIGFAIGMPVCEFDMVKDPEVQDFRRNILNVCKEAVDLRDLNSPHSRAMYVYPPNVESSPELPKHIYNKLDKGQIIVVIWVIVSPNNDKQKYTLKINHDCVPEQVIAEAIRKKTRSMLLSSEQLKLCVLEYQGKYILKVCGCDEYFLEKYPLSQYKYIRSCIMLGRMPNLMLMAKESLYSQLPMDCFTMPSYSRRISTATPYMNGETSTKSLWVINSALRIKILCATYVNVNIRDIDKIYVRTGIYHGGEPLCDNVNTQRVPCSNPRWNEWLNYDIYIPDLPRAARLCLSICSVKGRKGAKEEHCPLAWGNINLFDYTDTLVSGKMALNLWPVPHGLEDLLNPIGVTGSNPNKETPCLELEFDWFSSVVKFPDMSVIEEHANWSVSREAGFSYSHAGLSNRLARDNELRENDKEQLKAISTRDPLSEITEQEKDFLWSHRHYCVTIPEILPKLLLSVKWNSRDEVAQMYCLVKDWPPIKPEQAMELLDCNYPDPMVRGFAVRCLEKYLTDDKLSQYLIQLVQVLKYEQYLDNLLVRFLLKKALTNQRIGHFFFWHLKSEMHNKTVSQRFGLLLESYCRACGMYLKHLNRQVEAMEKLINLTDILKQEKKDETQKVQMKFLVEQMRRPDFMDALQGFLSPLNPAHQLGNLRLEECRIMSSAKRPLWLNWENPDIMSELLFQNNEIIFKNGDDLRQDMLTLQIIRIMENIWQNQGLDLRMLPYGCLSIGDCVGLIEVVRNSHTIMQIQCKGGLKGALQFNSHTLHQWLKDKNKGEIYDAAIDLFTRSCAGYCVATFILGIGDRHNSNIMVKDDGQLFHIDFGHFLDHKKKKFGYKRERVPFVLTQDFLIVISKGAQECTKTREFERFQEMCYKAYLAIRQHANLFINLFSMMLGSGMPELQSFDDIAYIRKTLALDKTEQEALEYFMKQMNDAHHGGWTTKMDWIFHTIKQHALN
Sequence of PIK3CG (human) (P48736 whole entry, looked up): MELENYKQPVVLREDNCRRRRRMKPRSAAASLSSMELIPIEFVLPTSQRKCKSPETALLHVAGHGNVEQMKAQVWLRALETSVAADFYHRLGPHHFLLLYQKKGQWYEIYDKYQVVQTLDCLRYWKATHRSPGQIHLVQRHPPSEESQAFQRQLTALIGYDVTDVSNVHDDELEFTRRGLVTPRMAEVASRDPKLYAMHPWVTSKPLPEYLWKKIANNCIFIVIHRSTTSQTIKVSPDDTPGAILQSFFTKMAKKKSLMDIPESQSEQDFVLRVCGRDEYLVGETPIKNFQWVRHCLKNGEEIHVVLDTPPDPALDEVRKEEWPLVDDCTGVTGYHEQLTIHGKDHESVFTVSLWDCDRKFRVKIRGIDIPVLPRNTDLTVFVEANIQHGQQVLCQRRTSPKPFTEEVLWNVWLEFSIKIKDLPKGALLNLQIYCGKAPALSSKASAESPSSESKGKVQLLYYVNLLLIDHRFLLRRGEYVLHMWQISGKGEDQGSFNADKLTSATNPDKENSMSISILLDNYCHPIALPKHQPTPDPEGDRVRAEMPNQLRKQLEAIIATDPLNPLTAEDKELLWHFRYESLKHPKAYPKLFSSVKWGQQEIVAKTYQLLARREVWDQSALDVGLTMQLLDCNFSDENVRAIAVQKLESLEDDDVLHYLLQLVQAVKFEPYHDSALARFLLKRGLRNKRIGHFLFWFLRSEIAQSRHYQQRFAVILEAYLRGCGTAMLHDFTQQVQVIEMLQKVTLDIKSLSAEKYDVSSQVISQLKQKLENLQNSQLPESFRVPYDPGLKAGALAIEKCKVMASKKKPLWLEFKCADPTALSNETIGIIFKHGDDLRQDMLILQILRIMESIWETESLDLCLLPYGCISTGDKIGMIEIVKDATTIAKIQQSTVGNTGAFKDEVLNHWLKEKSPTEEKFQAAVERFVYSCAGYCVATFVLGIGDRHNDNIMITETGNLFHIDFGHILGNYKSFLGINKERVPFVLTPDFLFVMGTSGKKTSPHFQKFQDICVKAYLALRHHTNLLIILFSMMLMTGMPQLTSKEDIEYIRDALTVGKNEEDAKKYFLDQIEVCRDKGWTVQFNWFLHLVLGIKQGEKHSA

Row | Compound | IC50 [1] [nM] | IC50 [2] [nM] | IC50 [3] [nM]
1 | CCn1cnc(CCNC(=O)Nc2nc(C)c(-c3ccc(S(C)(=O)=O)c(F)c3)s2)c1 | 38 | 934 | 2150
2 | Cc1nc(NC(=O)N2CC(C#N)C2)sc1-c1ccc(S(C)(=O)=O)c(F)c1 | 195 | 190 | 
3 | Cc1nc(NC(=O)NCCS(C)(=O)=O)sc1-c1ccc(F)c(S(C)(=O)=O)c1 | 177 | 218 | 637
4 | Cc1nc(NC(=O)NCC(=O)N(C)C)sc1-c1ccc(S(C)(=O)=O)c(F)c1 | 12 | 9 | 28
5 | Cc1nc(NC(=O)NCCc2cn(C(C)C)cn2)sc1-c1ccc(S(C)(=O)=O)c(F)c1 | 44 | 1500 | 420
6 | Cc1nc(NC(=O)NCCO)sc1-c1ccc(S(C)(=O)=O)c(C(F)(F)F)c1 | 47 | 35 | 180
7 | Cc1nc(NC(=O)NCCC(=O)OC(C)(C)C)sc1-c1ccc(S(C)(=O)=O)c(F)c1 | 16 | 3020 | 626
8 | Cc1nc(NC(=O)NCCC(=O)OC(C)(C)C)sc1-c1ccc(S(C)(=O)=O)c(C(F)(F)F)c1 | 213 | 2060 | 2620
9 | CCc1cnc(CCNC(=O)Nc2nc(C)c(-c3ccc(S(C)(=O)=O)c(-n4ccnc4)c3)s2)o1 | 32 | 156 | 170
10 | CCc1nnc(CCNC(=O)Nc2nc(C)c(-c3ccc(S(C)(=O)=O)c(F)c3)s2)o1 | 74 | 839 | 3790

From the Kinase Knowledgebase extract (Sharma et al. 2016)
